Laboratory results taken from the supplement of paper PMC10307832.

Legend:
Assay in all cases: relative viability (nuclei count vs DMSO), 5 days (fraction); higher = more cells survive
XMD13-2 + OSI-027 = compound: C1CC1C(=O)NC2=NNC3=C2C=CC(=C3)C4=CC(=CC=C4)C(=O)NC5CC5 [XMD13-2] + COc1cccc2cc(-c3nc([C@H]4CC[C@H](C(=O)O)CC4)n4ncnc(N)c34)[nH]c12 [OSI-027] (partner 0.5 µM)
Summary of the method: (§1)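 Relative viability is defined as nuclei in treated wells over nuclei in vehicle wells. Duplicate plates were run and medians reported. Lung cancer cell lines in 1536-well plates were dosed by pin tool one day after seeding, with one drug or with a fixed anchor-drug dose plus five library-drug doses (not always all listed) in √10 steps, and nuclei were counted after 5 days.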

XMD13-2 + Pictilisib = compound: C1CC1C(=O)NC2=NNC3=C2C=CC(=C3)C4=CC(=CC=C4)C(=O)NC5CC5 [XMD13-2] + CS(=O)(=O)N1CCN(Cc2cc3nc(-c4cccc5[nH]ncc45)nc(N4CCOCC4)c3s2)CC1 [Pictilisib] (partner 1 µM)
Summary of the method: as §1

ALW-II-49-7 + Alpelisib = compound: Cc1ccc(C(=O)Nc2cccc(C(F)(F)F)c2)cc1Nc1cncc(C(N)=O)c1 [ALW-II-49-7] + Cc1nc(NC(=O)N2CCC[C@H]2C(N)=O)sc1-c1ccnc(C(C)(C)C(F)(F)F)c1 [Alpelisib] (partner 2 µM)
Summary of the method: as §1

ALW-II-49-7 + Vorinostat = compound: Cc1ccc(C(=O)Nc2cccc(C(F)(F)F)c2)cc1Nc1cncc(C(N)=O)c1 [ALW-II-49-7] + O=C(CCCCCCC(=O)Nc1ccccc1)NO [Vorinostat] (partner 1 µM)
Summary of the method: as §1

| Cell Line | relative viability (XMD13-2 + OSI-027; first compound 0.05 µM) | relative viability (XMD13-2 + OSI-027; first compound 0.1581 µM) | relative viability (XMD13-2 + OSI-027; first compound 0.5 µM) | relative viability (XMD13-2 + OSI-027; first compound 1.581 µM) | relative viability (XMD13-2 + OSI-027; first compound 5 µM) | relative viability (XMD13-2 + Pictilisib; first compound 0.05 µM) | relative viability (XMD13-2 + Pictilisib; first compound 0.1581 µM) | relative viability (XMD13-2 + Pictilisib; first compound 0.5 µM) | relative viability (XMD13-2 + Pictilisib; first compound 1.581 µM) | relative viability (XMD13-2 + Pictilisib; first compound 5 µM) | relative viability (ALW-II-49-7 + Alpelisib; first compound 0.08 µM) | relative viability (ALW-II-49-7 + Alpelisib; first compound 0.253 µM) | relative viability (ALW-II-49-7 + Alpelisib; first compound 0.8 µM) | relative viability (ALW-II-49-7 + Alpelisib; first compound 2.53 µM) | relative viability (ALW-II-49-7 + Alpelisib; first compound 8 µM) | relative viability (ALW-II-49-7 + Vorinostat; first compound 0.08 µM) | relative viability (ALW-II-49-7 + Vorinostat; first compound 0.253 µM) | relative viability (ALW-II-49-7 + Vorinostat; first compound 0.8 µM) | relative viability (ALW-II-49-7 + Vorinostat; first compound 2.53 µM) | relative viability (ALW-II-49-7 + Vorinostat; first compound 8 µM) |
| --- | --- | --- | --- | --- | --- | --- | --- | --- | --- | --- | --- | --- | --- | --- | --- | --- | --- | --- | --- | --- |
| HCC-44 | 0.565 | 0.57 | 0.507 | 0.381 | 0.438 | 0.665 | 0.597 | 0.609 | 0.533 | 0.571 | 0.796 | 0.854 | 0.887 | 0.752 | 0.592 | 1.14 | 1.11 | 1.11 | 1.12 | 1.09 |
| HCC-78 | 0.432 | 0.394 | 0.317 | 0.38 | 0.345 | 0.227 | 0.281 | 0.195 | 0.223 | 0.188 | 0.275 | 0.309 | 0.351 | 0.325 | 0.337 | 0.428 | 0.358 | 0.408 | 0.342 | 0.485 |
| HCC-366 | 1.02 | 0.598 | 1.15 | 0.888 | 0.983 | 0.189 | 0.136 | 0.151 | 0.2 | 0.12 | 0.392 | 0.605 | 0.417 | 0.356 | 0.579 | 0.49 | 0.363 | 0.258 | 0.343 | 0.21 |
| HCC-827 | 0.911 | 0.747 | 0.708 | 0.753 | 0.675 | 1.01 | 0.901 | 1.18 | 0.913 | 0.67 | 0.949 | 1.08 | 0.945 | 0.94 | 0.897 | 0.9 | 0.803 | 0.787 | 0.813 | 0.883 |
| HOP-62 | 0.998 | 0.896 | 0.783 | 0.895 | 0.792 | 1.01 | 0.617 | 0.586 | 0.725 | 0.476 | 1.05 | 1.13 | 1.14 | 0.499 | 0.955 | 0.547 | 0.696 | 0.588 | 0.523 | 0.298 |
| IA-LM | – | – | – | – | – | 0.387 | 0.317 | 0.339 | 0.3 | 0.179 | 0.768 | 0.523 | 0.653 | 0.321 | 0.112 | 0.998 | 0.613 | 0.745 | 0.29 | 0.423 |
| LC-2-ad | 0.86 | 0.78 | 0.972 | 0.723 | 0.67 | 0.533 | 0.352 | 0.569 | 0.413 | 0.332 | 0.911 | 0.884 | 0.847 | 0.892 | 0.864 | 0.681 | 0.763 | 0.691 | 0.698 | 0.528 |
| LCLC-97TM1 | 0.612 | 0.404 | 0.603 | 0.433 | 0.445 | 0.297 | 0.187 | 0.13 | 0.148 | 0.123 | 0.245 | 0.245 | 0.296 | 0.195 | 0.269 | 0.96 | 0.683 | 0.642 | 0.685 | 0.49 |
| LCLC-103H | 0.588 | 0.497 | 0.47 | 0.509 | 0.506 | 0.684 | 0.714 | 0.585 | 0.657 | 0.622 | 0.933 | 0.968 | 0.993 | 1.14 | 0.972 | 0.79 | 0.763 | 0.658 | 0.71 | 0.618 |
| LK-2 | 0.236 | 0.151 | 0.191 | 0.239 | 0.216 | 0.744 | 0.464 | 0.581 | 0.619 | 0.582 | 1.14 | 1.09 | 1.02 | 0.74 | 0.967 | 0.327 | 0.315 | 0.225 | – | 0.247 |
| LOU-NH91 | 0.753 | 0.716 | 0.759 | 0.663 | 0.815 | 0.565 | 0.506 | 0.524 | 0.494 | 0.511 | 0.648 | 0.72 | 0.729 | 0.388 | 0.797 | 0.884 | 0.888 | 1 | – | 0.805 |
| NCI-H522 | 0.71 | 0.692 | 0.742 | 0.701 | 0.658 | – | – | – | – | – | – | – | – | – | – | 0.824 | 1.04 | 0.824 | 0.834 | 0.94 |
| NCI-H1299 | – | – | – | – | – | 0.896 | 0.738 | 0.826 | 0.592 | 0.398 | 1.08 | 0.974 | 1.11 | 1.17 | 0.968 | – | – | – | – | – |
| NCI-H1563 | 0.811 | 0.731 | 0.74 | 0.788 | 0.751 | 0.581 | 0.665 | 0.737 | 0.651 | 0.605 | 0.946 | 0.941 | 1.01 | 0.977 | 0.976 | – | – | – | – | – |
| NCI-H1623 | 0.417 | 0.43 | 0.408 | 0.363 | 0.462 | – | – | – | – | – | – | – | – | – | – | – | – | – | – | – |
| NCI-H1648 | 0.251 | 0.266 | 0.241 | 0.291 | 0.259 | – | – | – | – | – | – | – | – | – | – | 0.346 | 0.298 | 0.287 | 0.327 | 0.425 |
| NCI-H1650 | 0.651 | 0.609 | 0.747 | 0.555 | 0.697 | 0.687 | 0.452 | 0.644 | 0.542 | 0.541 | – | – | – | – | – | 0.518 | 0.656 | 0.563 | 0.524 | 0.576 |
| NCI-H1703 | – | – | – | – | – | 0.296 | 0.262 | 0.267 | 0.237 | 0.193 | 0.331 | 0.322 | 0.258 | 0.297 | 0.182 | – | – | – | – | – |
| NCI-H1792 | 0.772 | 0.813 | 0.696 | 0.914 | 0.669 | 0.29 | 0.249 | 0.266 | 0.284 | 0.265 | 0.512 | 0.459 | 0.586 | 0.504 | 0.473 | – | – | – | – | – |
| NCI-H2342 | 0.581 | 0.658 | 0.728 | 0.643 | 0.597 | – | – | – | – | – | – | – | – | – | – | 0.702 | 0.922 | 0.744 | 0.837 | 0.859 |
| SW 900 | 0.654 | 0.707 | 0.686 | 0.457 | 0.635 | – | – | – | – | – | – | – | – | – | – | 0.539 | 0.554 | – | 0.517 | 0.289 |
